Source: patent US20120277257A1, “Methods of Treating Diseases, Pharmaceutical Compositions, and Pharmaceutical Dosage Forms” (MYREXIS, INC., priority 2009, published 2012)
Where two headings read alike, the source gives them in different places.

Assay: Phase I clinical trial, human plasma pharmacokinetics of oral Compound 1
Type: in vivo
Conditions: human, plasma, po; for Vd/F: read-out: Vz/F
Procedure: A human clinical study was initiated at a starting dose of 50 mg/m^2. Subjects had recurrent cancer refractory to available systemic therapy. Compound 1 was administered daily by mouth in tablet form for 21 consecutive days in a 28 day cycle to each enrolled subject. […] Plasma was collected pre-dose only for cycle 1 day 8. […] Patients were men and women with metastatic cancer, ranged in age from 45 to 85 years, and received doses ranging from 50 mg/m^2 to 340 mg/m^2, with a total daily dose of 100-740 mg (Tables 2A and 2B).

[1] = 50 mg/m^2, Day 19, Cohort 1, Subject 101, 50 mg/m^2 (100 mg), oral daily
[2] = 100 mg/m^2, Day 01, Cohort 2, Subject 201, 100 mg/m^2 (160 mg), oral daily
[3] = 100 mg/m^2, Day 21, Cohort 2, 100 mg/m^2 (160 mg), oral daily
[4] = 100 mg/m^2, Day 21, Cohort 2, Subject 201, 100 mg/m^2 (160 mg), oral daily
[5] = 165 mg/m^2, Day 01, Cohort 3, Subject 301, 165 mg/m^2 (300 mg), oral daily
[6] = 165 mg/m^2, Day 21, Cohort 3, 165 mg/m^2 (300 mg), oral daily
[7] = 165 mg/m^2, Day 21, Cohort 3, Subject 301, 165 mg/m^2 (300 mg), oral daily
[8] = 245 mg/m^2, Day 01, Cohort 4, N = 6, 245 mg/m^2 (340-540 mg), oral daily
[9] = 340 mg/m^2, Day 01, Cohort 5, 340 mg/m^2 (480-620 mg), oral daily
[10] = 340 mg/m^2, Day 01, Cohort 5, N = 2, 340 mg/m^2 (480-620 mg), oral daily
[11] = 340 mg/m^2, Day 21, Cohort 5 (BID), Subject 508, 340 mg/m^2 (330 mg), oral twice daily
[12] = 340 mg/m^2, Day 21, Cohort 5, 340 mg/m^2 (620 mg), oral daily
[13] = 340 mg/m^2, Day 21, Cohort 5, Subject 503, 340 mg/m^2 (620 mg), oral daily
[14] = Day 21, Cohort 4, 176-245 mg/m^2 (340-540 mg), oral daily

In the case of `C[C@H](O)C(=O)N1CCC(CCn2c(Sc3cc4c(cc3Br)OCO4)nc3c(N)ncnc32)CC1` [Compound 1, (2S)-1-[4-(2-{6-amino-8-[(6-bromo-1,3-benzodioxol-5-yl)thio]-9H-purin-9-yl}ethyl)piperidin-1-yl]-1-oxopropan-2-ol], the AUC(0-t) (50 mg/m^2, Day 19, Cohort 1, 50 mg/m^2 (100 mg), oral daily, read-out: AUC(0-24)) is reported as 22000 ng·h/mL, the Vd/F (50 mg/m^2, Day 19, Cohort 1, 50 mg/m^2 (100 mg), oral daily) is reported as 88 L and the Cmax [1] is reported as 1700 ng/mL. It also gave a Tmax [1] of 1 h, a half-life [1] of 13.4 h and a Cmax [2] of 2950 ng/mL. For the same molecule, the Tmax [2] was 2 h, the half-life [2] was 9.8 h and the AUC(0-inf) [3] was 67300 ng·h/mL. For the same molecule, the AUC(0-t) (100 mg/m^2, Day 21, Cohort 2, 100 mg/m^2 (160 mg), oral daily, read-out: AUC(0-24)) was 49800 ng·h/mL, the Vd/F [3] was 52 L and the Cmax [4] was 3180 ng/mL. It also gave a Tmax [4] of 6 h, a half-life [4] of 11.2 h and a Cmax [5] of 6870 ng/mL. For the same molecule, the Tmax [5] was 4 h, the half-life [5] was 11.5 h and the AUC(0-inf) [6] was 308000 ng·h/mL. It also gave an AUC(0-t) (165 mg/m^2, Day 21, Cohort 3, 165 mg/m^2 (300 mg), oral daily, read-out: AUC(0-24)) of 200000 ng·h/mL, a Vd/F [6] of 30.4 L and a Cmax [7] of 11800 ng/mL. The Tmax [7] was 8 h, the half-life [7] was 14 h and the AUC(0-inf) (240 mg, Day 01, Cohort 6 (BID), 240 mg, oral twice daily, based on a single 12-hour dosing interval) was 55000 ng·h/mL. For the same molecule, the AUC(0-t) (240 mg, Day 01, Cohort 6 (BID), 240 mg, oral twice daily, read-out: AUC(0-12)) was 38200 ng·h/mL, the Vd/F (240 mg, Day 01, Cohort 6 (BID), 240 mg, oral twice daily) was 39.6 L and the AUC(0-inf) (240 mg, Day 21, Cohort 6 (BID), 240 mg, oral twice daily, based on a single 12-hour dosing interval) was 95100 ng·h/mL. The AUC(0-t) (240 mg, Day 21, Cohort 6 (BID), 240 mg, oral twice daily, read-out: AUC(0-12)) was 67600 ng·h/mL, the Vd/F (240 mg, Day 21, Cohort 6 (BID), 240 mg, oral twice daily) was 34.6 L and the Cmax [8] was 7840 ng/mL. It also gave a Tmax [8] of 2.5 h, a half-life [8] of 10.8 h and an AUC(0-inf) (340 mg/m^2, Day 01, Cohort 5 (BID), 340 mg/m^2 (270-370 mg), oral twice daily, based on a single 12-hour dosing interval) of 107000 ng·h/mL. It also gave an AUC(0-t) (340 mg/m^2, Day 01, Cohort 5 (BID), 340 mg/m^2 (270-370 mg), oral twice daily, read-out: AUC(0-12)) of 62100 ng·h/mL, a Vd/F (340 mg/m^2, Day 01, Cohort 5 (BID), 340 mg/m^2 (270-370 mg), oral twice daily) of 28.4 L and an AUC(0-inf) [9] of 334000 ng·h/mL. It also gave an AUC(0-t) (340 mg/m^2, Day 01, Cohort 5, 340 mg/m^2 (480-620 mg), oral daily, read-out: AUC(0-24)) of 233000 ng·h/mL, a Vd/F [9] of 51.4 L and a Cmax [10] of 16300 ng/mL. For the same molecule, the Tmax [10] was 3 h, the half-life [10] was 14.1 h and the AUC(0-inf) (340 mg/m^2, Day 21, Cohort 5 (BID), 340 mg/m^2 (330 mg), oral twice daily, based on a single 12-hour dosing interval) was 96300 ng·h/mL. For the same molecule, the AUC(0-t) (340 mg/m^2, Day 21, Cohort 5 (BID), 340 mg/m^2 (330 mg), oral twice daily, read-out: AUC(0-12)) was 69500 ng·h/mL, the Vd/F (340 mg/m^2, Day 21, Cohort 5 (BID), 340 mg/m^2 (330 mg), oral twice daily) was 45.7 L and the Cmax [11] was 11000 ng/mL. It also gave a Tmax [11] of 1 h, a half-life [11] of 6.7 h and an AUC(0-inf) [12] of 610000 ng·h/mL. The AUC(0-t) (340 mg/m^2, Day 21, Cohort 5, 340 mg/m^2 (620 mg), oral daily, read-out: AUC(0-24)) was 363000 ng·h/mL, the Vd/F [12] was 36.8 L and the Cmax [13] was 25600 ng/mL. For the same molecule, the Tmax [13] was 1 h, the half-life [13] was 19.3 h and the AUC(0-inf) [14] was 202000 ng·h/mL. The AUC(0-t) (Day 21, Cohort 4, 176-245 mg/m^2 (340-540 mg), oral daily, read-out: AUC(0-24)) was 127000 ng·h/mL and the Vd/F [14] was 77.9 L.
